Data: patent publication US20140336218A1, “ARFORMOTEROL AND TIOTROPIUM COMPOSITIONS AND METHODS FOR USE” (priority 2008, published 2014)

How the values were obtained:
COPD patients [1] = assay: Spirometry (FEV1, FVC) in 2-week randomized, double dummy, parallel group clinical trial; format: in vivo, human
Description: (§1) This was a 2-week, prospective, multi-center (34 sites), randomized, modified blind, double dummy, parallel group study designed to evaluate the efficacy and safety of the combination of arformoterol 15 μg BID and tiotropium 18 μg QD (dosed sequentially) versus the individual mono-therapies in the treatment of COPD patients. The study was conducted according to the principles established by the Declaration of Helsinki (see, e.g., World Medical Association Declaration of Helsinki. Recommendations guiding physicians in biomedical research involving human subjects. JAMA 1997; 277:925-926.). Appropriate Institutional Review boards approved the protocol and written informed consent was obtained from the patients.
All patients had non-asthmatic COPD (including emphysema and/or chronic bronchitis). […] They also were required to have a pre-bronchodilator baseline pulmonary function of FEV1>0.7 L, FEV1/FVC ratio of ≦70%, and FEV1≦65% predicted. Patients were excluded if they had life-threatening or unstable respiratory status within 30 days of the screening visit. Patients who changed their prescribed dose or type of COPD medication within 14 days prior to screening or who had ever used tiotropium bromide inhalation powder were excluded.
(§2) Eligible patients were randomized to receive one of three treatments for 14 days: nebulized arformoterol 15 μg (Brovana®, Sepracor Inc., Marlborough, Mass.) BID and placebo DPI QD, nebulized placebo BID and tiotropium 18 μg (Spriva® HandiHaler® Boehringer Ingelheim, Ridgefield, Conn.) DPI QD, or nebulized arformoterol 15 μg BID and tiotropium 18 μg DPI QD. The nebulized drug was administered first using the PARI LC Plus® nebulizer driven by the Duraneb 3000® compressor (Pari: Pari Respiratory Equipment Inc., Midlothian, Va.) at a flow rate of 3.3 L/minute followed (within 5 minutes) by the DPI administration (HandiHaler®). The tiotropium and placebo DPI capsules were identical in size and shape but differed in color.
(§3) At week 0 and week 2, medical event calendars and blood samples were collected and vital signs and heart measurements analyzed. At week 0, spirometry was performed pre-morning dose, immediately (within 5 minutes) and at 30 minutes, 1, 2, 4, 6, 8, 10, and 12 hours post-first dose. After the 12-hour pulmonary function test patients self-administered the evening dose of study medication. At week 2, serial spirometry was also performed as at week 0, as well as immediately (within 5 minutes) following the evening dose (administered 12 hours after the morning dose) and 12.5, 13, 14, 16, 23, and 24 hours post-morning dose. Inspiratory capacity was evaluated pre-dose and at 2 hours post-morning dose at week 0, and pre-dose and 2, 11, 14, and 24 hours post-morning dose at week 2. All inspiratory capacity measurements were the mean of acceptable inspiratory capacity maneuvers, two of which were reproducible. Prior to an inspiratory capacity maneuver a patient had to have a stable expiratory level for about 10 breaths. Once the stable level was achieved, at the end of exhalation of a normal breath the patient was asked to make a steady and full inhalation at normal inspiratory flow rates until the lungs were completely full, and then to exhale at a normal rate.
(§4) All pulmonary function values used were the highest among the three acceptable maneuvers. The Investigator ensured that all spirometry was performed in accordance with the American Thoracic Society/European Respiratory Society Standardisation of Spirometry guidelines (see, e.g., Miller M R, Hankinson J, Brusasco V, Burgos F, Casaburi R, Coates A, et al. Standardisation of spirometry. Eur Respir J 2005; 26:319-338; herein incorporated in its entirety by reference). Centralized over-reading of spirometry and inspiratory capacity pulmonary function measures were used for quality control.

COPD patients [2] = assay: Inspiratory capacity in 2-week clinical trial; format: in vivo, human; conditions: for Difference between combined therapy and mono-therapies in change in inspiratory capacity, LS mean: combined versus the mono-therapy; for Change in Inspiratory Capacity, mean (SD): week 2 from study baseline
Description: as §1, §2, §3, §4
The study was designed to detect a mean treatment difference of time normalized FEV1AUC over 24 hours (FEV1AUC0-24) (the primary endpoint) of 0.075 L with a standard deviation of 0.016 L when comparing combined therapy with mono-therapy, using a two-sided 5% significance level, following 2-weeks of dosing for the primary comparison with 80% power. All efficacy analyses were performed on the ITT population. All statistical testing was 2-tailed and conducted at the 5% significance level, unless otherwise indicated.

COPD patients [3] = assay: Adverse events in 2-week clinical trial; conditions: ITT, 2 weeks of treatment
Description: as §1, §2
Descriptive statistics were calculated by treatment for baseline characteristics and each efficacy parameter. Adverse events were summarized using counts and percentages. All adverse events were coded using MedDRA (Medical Dictionary for Regulatory Activities (see, e.g., MedDRA and MSSO. The medical dictionary for regulatory activities 2008). A COPD exacerbation was pre-defined as an increase in symptoms that necessitated any change in baseline medication other than bronchodilators (e.g. anti-inflammatory agents, antibiotics, supplemental oxygen therapy, etc.) or caused the patient to require additional medical attention (hospitalization, emergency room visit, etc.).

[4] = ITT, change from baseline at week 2
[5] = ITT, week 2, combined therapy versus the mono-therapy
[6] = ITT, week 2, trough = 24 hour time point after morning dose
[7] = baseline percent predicted FEV1 <50%, week 2, combined versus the mono-therapy
[8] = baseline percent predicted FEV1 <50%, week 2 from study baseline
[9] = baseline percent predicted FEV1 ≧50%, week 2, combined versus the mono-therapy
[10] = baseline percent predicted FEV1 ≧50%, week 2 from study baseline

Structure (SMILES): C[N+]1(C)[C@@H]2C[C@@H](OC(=O)C(O)(c3cccs3)c3cccs3)C[C@H]1[C@@H]1O[C@@H]12 [Tiotropium]
- Peak Change in FEV1 over 12 hours, mean (SD) (COPD patients [1]; [4]): 0.27 (0.23) L
- Peak change in FVC over 12 hours, mean (SD) (COPD patients [1]; [4]): 0.40 (0.34) L
- Change in FEV1AUC0-24, mean (SD) (COPD patients [1]; ITT, change from baseline at week 2, time normalized): 0.08 (0.20) L
- Difference between combined therapy and mono-therapies in change in FEV1AUC0-24, LS mean (COPD patients [1]; [5]): 0.14 L
- Difference between combined therapy and mono-therapies in change in trough FEV1, LS mean (COPD patients [1]; [5]): 0.07 L
- Difference between combined therapy and mono-therapies in peak change in FEV1 over 12 hours, LS mean (COPD patients [1]; [5]): 0.11 L
- Difference between combined therapy and mono-therapies in peak change in FVC over 12 hours, LS mean (COPD patients [1]; [5]): 0.20 L
- Change in trough FEV1, mean (SD) (COPD patients [1]; [6]): 0.08 (0.21) L
- Difference between combined therapy and mono-therapies in change in FEV1AUC0-24, LS mean (COPD patients [1]; [7]): 0.16 L
- Difference between combined therapy and mono-therapies in peak change in FEV1 over 12 hours, LS mean (COPD patients [1]; [7]): 0.14 L
- Difference between combined therapy and mono-therapies in peak change in FVC over 12 hours, LS mean (COPD patients [1]; [7]): 0.28 L
- Difference between combined therapy and mono-therapies in trough FEV1, LS mean (COPD patients [1]; [7]): 0.10 L
- Peak Change in FEV1 over 12 hours, mean (SD) (COPD patients [1]; [8]): 0.29 (0.26) L
- Peak change in FVC over 12 hours, mean (SD) (COPD patients [1]; [8]): 0.43 (0.37) L
- Trough FEV1 (change in FEV1 at 24 hours post-dose), mean (SD) (COPD patients [1]; [8]): 0.11 (0.22) L
- Change in FEV1AUC0-24, mean (SD) (COPD patients [1]; baseline percent predicted FEV1 <50%, week 2 from study baseline (pre-dose week 0)): 0.10 (0.22) L
- Difference between combined therapy and mono-therapies in change in FEV1AUC0-24, LS mean (COPD patients [1]; [9]): 0.12 L
- Difference between combined therapy and mono-therapies in peak change in FEV1 over 12 hours, LS mean (COPD patients [1]; [9]): 0.09 L
- Difference between combined therapy and mono-therapies in peak change in FVC over 12 hours, LS mean (COPD patients [1]; [9]): 0.08 L
- Difference between combined therapy and mono-therapies in trough FEV1, LS mean (COPD patients [1]; [9]): 0.04 L
- Peak Change in FEV1 over 12 hours, mean (SD) (COPD patients [1]; [10]): 0.23 (0.16) L
- Peak change in FVC over 12 hours, mean (SD) (COPD patients [1]; [10]): 0.34 (0.28) L
- Trough FEV1 (change in FEV1 at 24 hours post-dose), mean (SD) (COPD patients [1]; [10]): 0.03 (0.17) L
- Change in FEV1AUC0-24, mean (SD) (COPD patients [1]; baseline percent predicted FEV1 ≧50%, week 2 from study baseline (pre-dose week 0)): 0.05 (0.14) L
- mean improvement in peak FVC (COPD patients [1]; from baseline after 2 weeks of treatment): 40 mL
- LS mean (±SE) peak improvement in FEV1 from visit pre-dose (COPD patients [1]; from visit pre-dose): 0.19 L
- Mean (SD) inspiratory capacity improvement from baseline (COPD patients [2]; 2-hours post-dosing): 0.19 L
- Difference in trough FEV1 between combined therapy and mono-therapies, LS mean (COPD patients [2]; ITT, week 2, printed below the trough inspiratory capacity line, combined therapy versus the mono-therapy): 0.12 L
- Change in trough inspiratory capacity, mean (SD) (COPD patients [2]; [6]): 0.02 (0.29) L
- Difference between combined therapy and mono-therapies in change in inspiratory capacity, LS mean (COPD patients [2]; baseline percent predicted FEV1 <50%, week 2): 0.17 L
- Change in Inspiratory Capacity, mean (SD) (COPD patients [2]; baseline percent predicted FEV1 <50%): 0.02 (0.27) L
- Difference between combined therapy and mono-therapies in change in inspiratory capacity, LS mean (COPD patients [2]; baseline percent predicted FEV1 ≧50%, week 2): 0.02 L
- Change in Inspiratory Capacity, mean (SD) (COPD patients [2]; baseline percent predicted FEV1 ≧50%): 0.04 (0.33) L
- Any adverse event, n (%) (COPD patients [3]): 22 (27.5) n (%)
- COPD exacerbations (COPD patients [3]): 0 n (%)
- Discontinued due to adverse events, n (%) (COPD patients [3]): 1 (1.3) n (%)
- Overall cardiovascular adverse events, n (%) (COPD patients [3]): 1 (1.3) n (%)
- Serious adverse events, n (%) (COPD patients [3]): 0 n (%)
